In patent US20070202206A1, “Morinda Citrifolia Leaf Juice And Leaf Extract Based Formulations” (priority 2005, published 2007):

Tests used:
[1] = tested on: human epidermoid carcinoma cell line-A431; assay: cells; type: cell-based; conditions: for Percent Grown: A431, 72-hour exposure
Description: In this example, assays were performed to detect changes in cell proliferation based on the ability of viable cells to cause alamarBlue to change from non-fluorescent blue to a reduced, fluorescent red form. With the results obtained from the alamarBlue reaction, cell proliferation can be quantified and metabolic activity of viable cells can be examined. Test compounds including Morinda citrifolia leaf extract, leaf juice, and roast leaf were tested for their effects on […]
Morinda citrifolia leaf extract, leaf juice, and roast leaf were provided by Tahitian Noni International, Inc. for in vitro anti-tumor studies. The Morinda citrifolia compounds were dissolved in sterile distilled water and then diluted with sterile distilled water to obtain initial working solutions of 10000, 1000, 100, 10, and 1 μg/ml for the leaf extract and roast leaf, as well as 100, 10, 1, 0.1 and 0.01% for the leaf juice.
The tumor cell line, A431 (human epidermoid carcinoma), obtained from American Type Culture Collection (ATCC CRL-1555), was incubated in an air atmosphere of 5% CO2 at 37° C. The culture medium was used with Dulbecco's Modified Eagle's medium, 90%; Fetal Bovine Serum, 10% and supplemented with 1% Antibiotic-Antimycotic.
The anti-proliferation for the test substances was evaluated. Aliquots of 100 μl of cell suspension (about 3×10^3/well) were placed in 96-well microtiter plates in an atmosphere of 5% CO2 at 37° C. […] At the end of incubation, 20 μl of 90% alamarBlue reagent was added to each well for another 6-hour incubation before detection of cell viability by fluorescent intensity. Fluorescent intensity was measured using a Spectrafluor Plus plate reader with excitation at 530 nm and demission at 590 nm.
IC50, TGI, and LC50 values were then determined. […] TGI (Total Growth Inhibition) is the test compound concentration where the number or mass of treated cells at the end of the experiment was equal to that at time0. […] The measured results were calculated by the following formula: PG(%)=100×(Mean Ftest−Mean Ftime0)/(Mean Fctrl−Mean Ftime0)
If (Mean Ftest−Mean Ftime0)<0, then PG(%)−100×(Mean Ftest−Mean Ftime0)/(Mean Ftime0−Mean Fblank)
Where: • PG=percent growth • Mean Ftime0=The average of 2 measured fluorescent intensities of reduced alamarBlue at the time just before exposure of cells to the test substance. • Mean Ftest=The average of 2 measured fluorescent intensities of alamarBlue after 72-hour exposure of cells to the test substance. • Mean Fctrl, =The average of 2 measured fluorescent intensities of alamarBlue after 72-hour incubation without the test substance. • Mean Fblank=The average of 2 measured fluorescent intensities of alamarBlue in medium without cells after 72-hour incubation.
A decrease of 50% or more (≧50%) in fluorescent intensity relative to the vehicle-treated control indicated significant cell growth inhibition, cytostatic or cytotoxic activity, and a semi-quantitative IC50, TGI, and LC50 were then determined by nonlinear regression using GraphPad Prism (GraphPad Software, USA).

[2] = tested on: Propionibacterium acnes (ATCC 6919); assay: Microbial in vitro assay, Propionibacterium acnes; type: cell-based; conditions: Microbial In Vitro Assays, Anaerobes

**Q.** Which results are given for CO[C@@]12[C@H](COC(N)=O)C3=C(C(=O)C(C)=C(N)C3=O)N1C[C@@H]1N[C@@H]12 [Mitomycin]?
**A.** Percent Grown ([1]; concentration 0.001 μM): 101%; Percent Grown ([1]; concentration 0.01 μM): 82%; Percent Grown ([1]; concentration 0.1 μM): 7%; Percent Grown ([1]; concentration 1 μM): 35%; Percent Grown ([1]; concentration 10 μM): 97%; IC50 ([1]; Homo sapiens, A-431, Tumor, Skin (A431), semi-quantitative, nonlinear regression, read-out: IC50 (50% Inhibition Concentration)): 0.035 µM; TGI (Total Growth Inhibition) ([1]; Tumor, Skin (A431), semi-quantitative, nonlinear regression): 0.19 µM

**Q.** Which “Reference Compound Data, Concurrent” value [2] does the source give for CC1(C)S[C@@H]2[C@H](NC(=O)[C@H](N)c3ccccc3)C(=O)N2[C@H]1C(=O)O [Ampicillin] here?
**A.** 0.1 µg/mL
